Among the data in patent publication US20250145606A1 (Arcus Biosciences, Inc., priority 2023, published 2025) are IC50 values, retold here.

In general, IC50 refers to the point on the concentration scale where inhibition reaches its midpoint.

One assay has as its target c-Kit (Homo sapiens (Human), UniProt P10721). As to the kind of experiment: Inhibition of c-Kit kinase activity (HTRF KinEASE-TK). The note with it: biochemical, HTRF KinEASE-TK. The class given is biochemical. The essentials:
(§1)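 Recombinant kinases (2 nM CSF1R and c-Kit, 10 nM PDGFRα/β, 2× working) preincubated 1 h with compound in 50 mM HEPES pH 7.4, 5 mM MgCl2 (c-Kit) or 10 mM (others), 2 mM MnCl2; 2× ATP: c-Kit 16 μM, PDGFRα 1 μM, PDGFRβ 40 μM, CSF1R 20 μM. 120 min reaction at rt; TR-FRET 665/620 nm; IC50 by 4-parameter fit.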
(In general: Time-resolved FRET reads energy transfer from a long-lived donor to a nearby acceptor.)

The next assay addresses FLT3 (Homo sapiens (Human), UniProt P36888). As to the kind of experiment: Inhibition of FLT3 kinase activity (HTRF KinEASE-TK). The note with it: biochemical, HTRF KinEASE-TK. The assay is classed as biochemical. The essentials:
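FLT3 tyrosine kinase activity was measured with the HTRF KinEASE-TK kit by following phosphorylation of a biotinylated TK peptide. After the 45 min reaction, 10 μL of detection mix was added: 0.2 μM (2×) Streptavidin-XL665 and 2 μM (2×) TK-Antibody-Cryptate in detection buffer. After 60 min, TR-FRET was read on an Envision as the 665 nm/620 nm emission ratio with 320 nm excitation.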

Assay [1] concerns Phospho-KIT (Y703) in M07e cells. As to the kind of experiment: Phospho-KIT (Y703) cellular assay in M07e cells. The assay is classed as cell-based. Particulars: read-out: M07e Cell IC50. In outline: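 Serum-starved M07e cells preincubated 50 min at 37° C with 11-point half-log compound titration, then stimulated 10 min with SCF at 90.9 ng/mL final. Fixed, permeabilized cells stained for phospho-KIT Y703 and read by flow cytometry (live-gated geometric mean); IC50 by 4-parameter fit normalized to DMSO and positive control.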

The next assay addresses PDGFRβ (Homo sapiens (Human), UniProt P09619). As to the kind of experiment: Inhibition of PDGFRβ kinase activity (HTRF KinEASE-TK). Particulars: biochemical, HTRF KinEASE-TK. The essentials:
as §1

Another assay deals with CSF1R (Homo sapiens (Human), UniProt P07333). As to the kind of experiment: Inhibition of CSF1R kinase activity (HTRF KinEASE-TK). The note with it: biochemical, HTRF KinEASE-TK. The essentials: as §1
The next assay concerns the target PDGFRα (Homo sapiens (Human), UniProt P16234). As to the kind of experiment: Inhibition of PDGFRα kinase activity (HTRF KinEASE-TK). Particulars: biochemical, HTRF KinEASE-TK. In outline: as §1
The mark [2] stands for this setting: M-07e, Phospho-KIT (Y703), M07e cells.

Read-outs that look alike come from different tables or passages of the source.

FLT3, sequence (P36888 27-993): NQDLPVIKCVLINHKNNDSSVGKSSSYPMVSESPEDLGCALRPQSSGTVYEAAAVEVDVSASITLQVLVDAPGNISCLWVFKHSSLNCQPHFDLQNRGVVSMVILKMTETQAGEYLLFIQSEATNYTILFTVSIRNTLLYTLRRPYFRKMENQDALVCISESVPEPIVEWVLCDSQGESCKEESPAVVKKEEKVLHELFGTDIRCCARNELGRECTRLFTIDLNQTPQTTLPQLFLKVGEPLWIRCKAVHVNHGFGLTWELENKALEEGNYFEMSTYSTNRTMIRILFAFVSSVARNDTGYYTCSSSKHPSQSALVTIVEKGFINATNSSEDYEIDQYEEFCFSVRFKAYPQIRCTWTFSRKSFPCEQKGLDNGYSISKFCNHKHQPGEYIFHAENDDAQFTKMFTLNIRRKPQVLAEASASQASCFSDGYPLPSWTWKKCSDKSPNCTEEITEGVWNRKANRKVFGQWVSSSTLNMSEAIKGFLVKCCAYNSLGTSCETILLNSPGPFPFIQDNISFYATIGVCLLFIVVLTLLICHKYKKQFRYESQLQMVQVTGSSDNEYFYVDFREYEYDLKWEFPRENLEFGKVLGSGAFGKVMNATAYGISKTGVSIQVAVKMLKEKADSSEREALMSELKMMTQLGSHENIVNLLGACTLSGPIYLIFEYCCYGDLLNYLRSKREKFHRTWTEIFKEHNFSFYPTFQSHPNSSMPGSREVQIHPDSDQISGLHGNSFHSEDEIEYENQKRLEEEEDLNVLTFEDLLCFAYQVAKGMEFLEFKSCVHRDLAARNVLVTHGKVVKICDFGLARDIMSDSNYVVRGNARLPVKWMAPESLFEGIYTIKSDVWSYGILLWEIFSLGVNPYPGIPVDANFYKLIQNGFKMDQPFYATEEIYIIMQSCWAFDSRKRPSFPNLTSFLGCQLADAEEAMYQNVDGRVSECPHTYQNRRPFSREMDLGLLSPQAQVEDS
c-Kit, sequence (P10721 26-976): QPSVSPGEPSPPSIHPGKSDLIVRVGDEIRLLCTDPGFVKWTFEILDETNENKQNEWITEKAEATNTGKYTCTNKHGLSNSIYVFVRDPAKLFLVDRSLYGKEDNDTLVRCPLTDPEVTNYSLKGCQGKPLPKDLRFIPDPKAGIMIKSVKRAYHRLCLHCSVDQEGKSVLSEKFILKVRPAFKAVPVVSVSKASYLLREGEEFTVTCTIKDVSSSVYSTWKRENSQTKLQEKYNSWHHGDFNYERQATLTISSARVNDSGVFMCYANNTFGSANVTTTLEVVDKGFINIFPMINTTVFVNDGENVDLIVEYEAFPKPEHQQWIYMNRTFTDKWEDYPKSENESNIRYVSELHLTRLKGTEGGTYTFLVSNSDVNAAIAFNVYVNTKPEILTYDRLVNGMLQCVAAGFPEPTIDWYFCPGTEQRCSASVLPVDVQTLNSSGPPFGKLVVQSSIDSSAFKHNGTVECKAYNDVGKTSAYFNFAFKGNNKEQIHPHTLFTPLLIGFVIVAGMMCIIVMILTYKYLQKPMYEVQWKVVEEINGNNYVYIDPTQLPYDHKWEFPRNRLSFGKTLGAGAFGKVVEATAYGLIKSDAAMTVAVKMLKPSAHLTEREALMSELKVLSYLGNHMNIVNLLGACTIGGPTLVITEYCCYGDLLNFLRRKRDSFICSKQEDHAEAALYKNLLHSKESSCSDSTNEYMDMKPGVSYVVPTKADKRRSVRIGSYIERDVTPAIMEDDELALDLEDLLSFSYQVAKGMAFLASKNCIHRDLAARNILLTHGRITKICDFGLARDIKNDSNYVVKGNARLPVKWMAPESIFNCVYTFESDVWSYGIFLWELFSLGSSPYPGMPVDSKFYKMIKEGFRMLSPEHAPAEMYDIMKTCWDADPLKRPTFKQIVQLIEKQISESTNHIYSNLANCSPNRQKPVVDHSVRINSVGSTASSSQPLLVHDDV
CSF1R, sequence (P07333 20-972): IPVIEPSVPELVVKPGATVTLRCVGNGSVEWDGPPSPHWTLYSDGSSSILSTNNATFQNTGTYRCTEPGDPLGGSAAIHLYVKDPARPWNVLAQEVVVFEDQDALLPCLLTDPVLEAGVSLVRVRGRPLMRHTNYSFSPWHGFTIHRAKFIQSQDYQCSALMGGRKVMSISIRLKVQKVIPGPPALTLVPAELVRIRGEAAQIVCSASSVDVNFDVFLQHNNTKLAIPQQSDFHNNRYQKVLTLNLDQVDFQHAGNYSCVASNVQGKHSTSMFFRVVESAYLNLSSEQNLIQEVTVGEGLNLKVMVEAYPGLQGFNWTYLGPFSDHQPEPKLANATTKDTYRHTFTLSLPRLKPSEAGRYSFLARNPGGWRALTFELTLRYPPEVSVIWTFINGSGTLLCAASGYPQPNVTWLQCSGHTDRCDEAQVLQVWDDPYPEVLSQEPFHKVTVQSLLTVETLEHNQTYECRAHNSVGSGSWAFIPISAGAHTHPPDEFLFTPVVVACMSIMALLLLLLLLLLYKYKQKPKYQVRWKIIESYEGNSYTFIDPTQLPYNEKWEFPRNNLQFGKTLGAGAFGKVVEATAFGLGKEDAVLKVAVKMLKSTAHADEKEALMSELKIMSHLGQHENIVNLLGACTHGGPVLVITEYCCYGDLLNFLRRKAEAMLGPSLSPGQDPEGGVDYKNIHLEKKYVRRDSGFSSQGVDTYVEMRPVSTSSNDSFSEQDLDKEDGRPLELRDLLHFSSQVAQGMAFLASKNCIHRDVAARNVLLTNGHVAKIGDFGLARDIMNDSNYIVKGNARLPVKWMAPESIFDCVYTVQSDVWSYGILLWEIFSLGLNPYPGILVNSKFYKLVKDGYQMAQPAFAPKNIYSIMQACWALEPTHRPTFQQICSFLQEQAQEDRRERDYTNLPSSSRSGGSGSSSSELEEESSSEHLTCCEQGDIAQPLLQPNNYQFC
PDGFRα, sequence (P16234 24-1089): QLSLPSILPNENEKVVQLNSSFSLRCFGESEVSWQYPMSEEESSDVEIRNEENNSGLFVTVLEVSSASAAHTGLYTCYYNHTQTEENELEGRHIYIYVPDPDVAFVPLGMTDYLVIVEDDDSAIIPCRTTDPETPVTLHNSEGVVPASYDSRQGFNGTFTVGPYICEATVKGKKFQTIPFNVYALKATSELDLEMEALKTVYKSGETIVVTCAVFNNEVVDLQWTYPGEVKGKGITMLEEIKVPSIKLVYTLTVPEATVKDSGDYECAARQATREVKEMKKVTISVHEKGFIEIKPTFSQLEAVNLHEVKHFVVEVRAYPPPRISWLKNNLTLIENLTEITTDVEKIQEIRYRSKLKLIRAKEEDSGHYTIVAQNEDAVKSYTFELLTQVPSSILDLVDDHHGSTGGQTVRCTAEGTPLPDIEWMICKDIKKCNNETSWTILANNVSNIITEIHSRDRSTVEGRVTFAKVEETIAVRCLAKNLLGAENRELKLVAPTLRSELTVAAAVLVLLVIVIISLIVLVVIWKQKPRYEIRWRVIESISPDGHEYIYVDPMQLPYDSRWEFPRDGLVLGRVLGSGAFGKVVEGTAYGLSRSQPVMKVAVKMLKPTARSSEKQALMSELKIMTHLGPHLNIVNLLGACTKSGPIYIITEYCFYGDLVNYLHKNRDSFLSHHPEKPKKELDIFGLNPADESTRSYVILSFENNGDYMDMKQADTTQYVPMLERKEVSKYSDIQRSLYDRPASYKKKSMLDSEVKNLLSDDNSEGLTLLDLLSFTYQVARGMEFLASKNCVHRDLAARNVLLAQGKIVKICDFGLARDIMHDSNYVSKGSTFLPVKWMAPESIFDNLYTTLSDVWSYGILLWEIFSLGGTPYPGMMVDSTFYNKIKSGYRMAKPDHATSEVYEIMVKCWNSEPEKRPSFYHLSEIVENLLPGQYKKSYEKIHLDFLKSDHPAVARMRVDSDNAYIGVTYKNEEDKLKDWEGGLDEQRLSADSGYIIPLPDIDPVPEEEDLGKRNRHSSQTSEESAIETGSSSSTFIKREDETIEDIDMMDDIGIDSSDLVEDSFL
PDGFRβ, sequence (P09619 33-1106): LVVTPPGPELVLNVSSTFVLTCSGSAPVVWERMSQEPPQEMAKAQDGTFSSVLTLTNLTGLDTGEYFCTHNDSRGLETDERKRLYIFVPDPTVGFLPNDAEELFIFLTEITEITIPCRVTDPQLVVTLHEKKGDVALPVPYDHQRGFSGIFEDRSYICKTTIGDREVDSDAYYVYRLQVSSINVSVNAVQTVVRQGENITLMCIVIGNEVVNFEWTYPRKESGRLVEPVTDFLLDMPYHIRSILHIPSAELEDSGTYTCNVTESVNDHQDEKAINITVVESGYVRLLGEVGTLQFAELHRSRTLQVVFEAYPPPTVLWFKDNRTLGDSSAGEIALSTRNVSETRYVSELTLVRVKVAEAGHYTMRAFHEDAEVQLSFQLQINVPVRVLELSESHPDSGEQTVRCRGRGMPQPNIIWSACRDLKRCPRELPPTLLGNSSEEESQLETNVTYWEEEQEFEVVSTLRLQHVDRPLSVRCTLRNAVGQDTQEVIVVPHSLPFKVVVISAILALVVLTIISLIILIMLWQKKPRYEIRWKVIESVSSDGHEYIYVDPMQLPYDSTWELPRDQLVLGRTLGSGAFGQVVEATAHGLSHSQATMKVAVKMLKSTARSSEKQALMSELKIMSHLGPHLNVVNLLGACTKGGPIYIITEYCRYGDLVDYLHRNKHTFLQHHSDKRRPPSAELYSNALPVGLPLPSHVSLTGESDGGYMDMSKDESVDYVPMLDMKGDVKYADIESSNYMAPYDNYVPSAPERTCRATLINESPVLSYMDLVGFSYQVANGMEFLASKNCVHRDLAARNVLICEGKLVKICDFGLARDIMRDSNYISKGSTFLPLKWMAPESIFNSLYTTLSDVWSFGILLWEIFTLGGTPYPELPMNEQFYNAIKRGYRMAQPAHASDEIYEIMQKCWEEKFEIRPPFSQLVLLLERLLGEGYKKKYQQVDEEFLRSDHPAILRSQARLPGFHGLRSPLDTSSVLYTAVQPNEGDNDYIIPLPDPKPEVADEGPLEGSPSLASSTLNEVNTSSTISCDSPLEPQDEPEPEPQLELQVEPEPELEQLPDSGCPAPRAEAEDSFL

Turning to `Nc1ncc(C(=O)Nc2cc(C(=O)Nc3ccc(OC(F)F)cn3)c(F)cc2Cl)s1` [Example 208, 2-Amino-N-[2-chloro-5-[[5-(difluoromethoxy)pyridin-2-yl]carbamoyl]-4-fluorophenyl]-1,3-thiazole-5-carboxamide], the half-inhibitory concentration (IC50) against c-Kit was below 100 nM; against FLT3, above 1000 nM; in assay [1] (setting [2]), below 100 nM; at PDGFRβ, 100 to 1000 nM; against CSF1R, 100 to 1000 nM; on PDGFRα, above 1000 nM.
Take `Nc1ncc(C(=O)Nc2cc(C(=O)Nc3ccc(OC4CC4)cn3)c(F)cc2Cl)s1` [Example 209, 2-Amino-N-[2-chloro-5-[(5-cyclopropyloxypyridin-2-yl)carbamoyl]-4-fluorophenyl]-1,3-thiazole-5-carboxamide]: the IC50 at c-Kit is below 100 nM; against FLT3, above 1000 nM; in assay [1] (setting [2]) it was below 100 nM; on PDGFRβ, 100 to 1000 nM; at CSF1R, 100 to 1000 nM; against PDGFRα, above 1000 nM.
Regarding `Nc1ncc(C(=O)Nc2cc(C(=O)Nc3ccc(OC(F)(F)F)cn3)c(F)cc2F)s1` [Example 210, 2-Amino-N-[2,4-difluoro-5-[[5-(trifluoromethoxy)pyridin-2-yl]carbamoyl]phenyl]-1,3-thiazole-5-carboxamide], the IC50 on c-Kit was below 100 nM; on FLT3 it was above 1000 nM; in assay [1] (setting [2]), below 100 nM; against PDGFRβ, 100 to 1000 nM; against CSF1R it was 100 to 1000 nM; against PDGFRα it was above 1000 nM.
Turning to `CCOc1ccc(NC(=O)c2cc(NC(=O)c3cnc(N)s3)c(F)cc2F)nc1` [Example 212, 2-Amino-N-[5-[(5-ethoxypyridin-2-yl)carbamoyl]-2,4-difluorophenyl]-1,3-thiazole-5-carboxamide], the IC50 against c-Kit is below 100 nM; against FLT3, above 1000 nM; in assay [1] (setting [2]), below 100 nM; on PDGFRβ it was above 1000 nM; at CSF1R, above 1000 nM; at PDGFRα, above 1000 nM.
As to `Nc1ncc(C(=O)Nc2cc(C(=O)Nc3ccc(OCC(F)F)cn3)c(F)cc2F)s1` [Example 213, 2-Amino-N-[5-[[5-(2,2-difluoroethoxy)pyridin-2-yl]carbamoyl]-2,4-difluorophenyl]-1,3-thiazole-5-carboxamide], the IC50 against c-Kit was below 100 nM; at FLT3 it was above 1000 nM; in assay [1] (setting [2]), below 100 nM; against PDGFRβ, above 1000 nM; against CSF1R, above 1000 nM; against PDGFRα, above 1000 nM.
As for `COCc1ccc(NC(=O)c2cc(NC(=O)c3cnc(N)s3)c(F)cc2F)nc1` [Example 215, 2-Amino-N-[2,4-difluoro-5-[[5-(methoxymethyl)pyridin-2-yl]carbamoyl]phenyl]-1,3-thiazole-5-carboxamide], the IC50 at c-Kit was 100 to 1000 nM; against FLT3 it was above 1000 nM; in assay [1] (setting [2]) it was above 1000 nM; against PDGFRβ, above 1000 nM; against CSF1R it was above 1000 nM; on PDGFRα, above 1000 nM.
With `Nc1ncc(C(=O)Nc2cc(C(=O)Nc3ccc(C(F)(F)F)cn3)c(F)cc2F)s1` [Example 216, 2-Amino-N-[2,4-difluoro-5-[[5-(trifluoromethyl)pyridin-2-yl]carbamoyl]phenyl]-1,3-thiazole-5-carboxamide], the IC50 against c-Kit was below 100 nM; against FLT3, above 1000 nM; in assay [1] (setting [2]), below 100 nM; against PDGFRβ, above 1000 nM; at CSF1R, 100 to 1000 nM; at PDGFRα, above 1000 nM.
Take `Nc1ncc(C(=O)Nc2cc(C(=O)Nc3ccc(C(F)F)cn3)c(F)cc2F)s1` [Example 217, 2-Amino-N-[5-[[5-(difluoromethyl)pyridin-2-yl]carbamoyl]-2,4-difluorophenyl]-1,3-thiazole-5-carboxamide]: the IC50 against c-Kit was below 100 nM; at FLT3, above 1000 nM; in assay [1] (setting [2]), below 100 nM; against PDGFRβ it was above 1000 nM; on CSF1R, above 1000 nM; at PDGFRα, above 1000 nM.
With `CC(C)Oc1ccc(NC(=O)c2cc(NC(=O)c3cnc(N)s3)c(F)cc2F)nc1` [Example 218, 2-Amino-N-[2,4-difluoro-5-[(5-propan-2-yloxypyridin-2-yl)carbamoyl]phenyl]-1,3-thiazole-5-carboxamide], the IC50 against c-Kit is below 100 nM; on FLT3 it was above 1000 nM; in assay [1] (setting [2]), below 100 nM; at PDGFRβ it was above 1000 nM; at CSF1R, above 1000 nM; against PDGFRα, above 1000 nM.
For the molecule `Nc1ncc(C(=O)Nc2cc(C(=O)Nc3ccc(OC(F)F)cn3)c(F)cc2F)s1` [Example 219, 2-Amino-N-[5-[[5-(difluoromethoxy)pyridin-2-yl]carbamoyl]-2,4-difluorophenyl]-1,3-thiazole-5-carboxamide], the IC50 at c-Kit is below 100 nM; against FLT3, above 1000 nM; in assay [1] (setting [2]) it was below 100 nM; on PDGFRβ, above 1000 nM; on CSF1R, above 1000 nM; against PDGFRα it was above 1000 nM.
For `Nc1ncc(C(=O)Nc2cc(C(=O)Nc3ccc(OCC(F)(F)F)cn3)c(F)cc2F)s1` [Example 220, 2-Amino-N-[2,4-difluoro-5-[[5-(2,2,2-trifluoroethoxy)pyridin-2-yl]carbamoyl]phenyl]-1,3-thiazole-5-carboxamide], the IC50 against c-Kit is below 100 nM; at FLT3 it was above 1000 nM; in assay [1] (setting [2]), below 100 nM; at PDGFRβ, above 1000 nM; against CSF1R, above 1000 nM; against PDGFRα, above 1000 nM.
Consider `Cc1cc(F)c(C(=O)Nc2ccc(C(F)F)cn2)cc1NC(=O)c1cnc(N)s1` [Example 226, 2-Amino-N-[5-[[5-(difluoromethyl)pyridin-2-yl]carbamoyl]-4-fluoro-2-methylphenyl]-1,3-thiazole-5-carboxamide], for which the IC50 is below 100 nM against c-Kit; above 1000 nM against FLT3; below 100 nM in assay [1] (setting [2]); 100 to 1000 nM on PDGFRβ; 100 to 1000 nM against CSF1R; above 1000 nM against PDGFRα.
`Cc1cc(F)c(C(=O)Nc2ccc(OC3CC3)cc2)cc1NC(=O)c1cnc(N)s1` [Example 229, 2-Amino-N-[5-[(4-cyclopropyloxyphenyl)carbamoyl]-4-fluoro-2-methylphenyl]-1,3-thiazole-5-carboxamide]: the IC50 was below 100 nM at c-Kit; above 1000 nM against FLT3; below 100 nM in assay [1] (setting [2]); below 100 nM against PDGFRβ; 100 to 1000 nM at CSF1R; below 100 nM against PDGFRα.
Consider `COc1ccc(NC(=O)c2cc(NC(=O)c3cnc(N)s3)c(C)cc2F)cc1` [Example 230, 2-Amino-N-[4-fluoro-5-[(4-methoxyphenyl)carbamoyl]-2-methylphenyl]-1,3-thiazole-5-carboxamide], for which the concentration for half-maximal inhibition (IC50) against c-Kit is below 100 nM; at FLT3 it was above 1000 nM; in assay [1] (setting [2]) it was below 100 nM; on PDGFRβ, 100 to 1000 nM; against CSF1R, 100 to 1000 nM; against PDGFRα, 100 to 1000 nM.
On to `Cc1cc(F)c(C(=O)Nc2ccc(Cl)cc2)cc1NC(=O)c1cnc(N)s1` [Example 231, 2-Amino-N-[5-[(4-chlorophenyl)carbamoyl]-4-fluoro-2-methylphenyl]-1,3-thiazole-5-carboxamide], for which the IC50 against c-Kit was below 100 nM; against FLT3 it was above 1000 nM; in assay [1] (setting [2]), below 100 nM; against PDGFRβ, 100 to 1000 nM; at CSF1R, 100 to 1000 nM; against PDGFRα, 100 to 1000 nM.
For `Cc1cc(F)c(C(=O)Nc2ccc(OC3CC3)cn2)cc1NC(=O)c1cnc(NC(=O)C2CC2)s1` [Example 238, 2-(Cyclopropanecarbonylamino)-NV-[5-[(5-cyclopropyloxypyridin-2-yl)carbamoyl]-4-fluoro-2-methylphenyl]-1,3-thiazole-5-carboxamide], the IC50 is below 100 nM against c-Kit; above 1000 nM at FLT3; below 100 nM in assay [1] (Phospho-KIT (Y703), M07e cells); below 100 nM on PDGFRβ; 100 to 1000 nM against CSF1R; 100 to 1000 nM against PDGFRα.
`CNc1ncc(C(=O)Nc2cc(C(=O)Nc3ccc(OC4CC4)cn3)c(F)cc2C)s1` [Example 241, N-[5-[(5-cyclopropyloxypyridin-2-yl)carbamoyl]-4-fluoro-2-methylphenyl]-2-(methylamino)-1,3-thiazole-5-carboxamide]: the IC50 on c-Kit was below 100 nM; at FLT3, above 1000 nM; in assay [1] (setting [2]) it was below 100 nM; at PDGFRβ, above 1000 nM; on CSF1R, above 1000 nM; against PDGFRα, above 1000 nM.
Consider `COCC1(c2ccc(NC(=O)c3cc(NC(=O)c4cnc(N)s4)c(C)cc3F)nc2)CC1` [Example 244], for which the IC50 at c-Kit is below 100 nM; at FLT3, above 1000 nM; in assay [1] it was below 100 nM; on PDGFRβ it was 100 to 1000 nM; at CSF1R, 100 to 1000 nM; on PDGFRα it was above 1000 nM.
